Experimental data reported in ChEMBL document CHEMBL4020828, “Design and Syntheses of Highly Potent Teixobactin Analogues against Staphylococcus aureus, Methicillin-Resistant Staphylococcus aureus (MRSA), and Vancomycin-Resistant Enterococci (VRE) in Vitro and in Vivo” (J Med Chem, 2018).
Values after ≈ are worked out from the molar mass of the structure shown. Positions of bridges follow the written chain, without caps; N, C: chain ends. Non-standard residues stand in square brackets, D forms with d. Residues, ends and D or L forms follow the SMILES beside them. dNMeF = CN[C@H](Cc1ccccc1)C(=O)O

What was measured:
Staphylococcus aureus [1] = assay: Antibacterial activity against methicillin-sensitive Staphylococcus aureus after 24 hrs; format: functional
Staphylococcus aureus [2] = assay: Antibacterial activity against methicillin-resistant Staphylococcus aureus after 24 hrs; format: functional
Staphylococcus aureus [3] = assay: Antibacterial activity against methicillin-resistant Staphylococcus aureus ATCC 33591 after 24 hrs; format: functional; conditions: ATCC 33591, 24 h
[4] = system: Staphylococcus saprophyticus; assay: Antibacterial activity against Staphylococcus saprophyticus ATCC BAA 750 after 24 hrs; format: functional; conditions: ATCC BAA 750, 24 h
[5] = system: Staphylococcus saprophyticus; assay: Antibacterial activity against Staphylococcus saprophyticus ATCC 15305 after 24 hrs; format: functional; conditions: ATCC 15305, 24 h
[6] = system: Staphylococcus saprophyticus; assay: Antibacterial activity against Staphylococcus saprophyticus ATCC 49453 after 24 hrs; format: functional; conditions: ATCC 49453, 24 h
[7] = system: Staphylococcus saprophyticus; assay: Antibacterial activity against Staphylococcus saprophyticus ATCC 49907 after 24 hrs; format: functional; conditions: ATCC 49907, 24 h
Enterococcus faecalis [8] = assay: Antibacterial activity against vancomycin-resistant Enterococcus faecalis isolate 1001 after 24 hrs; format: functional; conditions: isolate 1001, 24 h
Enterococcus faecalis [9] = assay: Antibacterial activity against vancomycin-resistant Enterococcus faecalis isolate 1002 after 24 hrs; format: functional; conditions: isolate 1002, 24 h
Enterococcus faecalis [10] = assay: Antibacterial activity against vancomycin-resistant Enterococcus faecalis isolate 1004 after 24 hrs; format: functional; conditions: isolate 1004, 24 h
Enterococcus faecalis [11] = assay: Antibacterial activity against vancomycin-resistant Enterococcus faecalis isolate 1008 after 24 hrs; format: functional; conditions: isolate 1008, 24 h
Enterococcus faecalis [12] = assay: Antibacterial activity against vancomycin-resistant Enterococcus faecalis ATCC 700802 after 24 hrs; format: functional; conditions: ATCC 700802, 24 h
Enterococcus faecalis [13] = assay: Antibacterial activity against vancomycin-resistant Enterococcus faecalis ATCC 29212 after 24 hrs; format: functional; conditions: ATCC 29212, 24 h
Staphylococcus aureus [14] = assay: Antibacterial activity against methicillin-resistant Staphylococcus aureus ATCC 700699 after 24 hrs; format: functional; conditions: ATCC 700699, 24 h
Staphylococcus aureus [15] = assay: Antibacterial activity against methicillin-resistant Staphylococcus aureus isolate 42412 after 24 hrs; format: functional; conditions: isolate 42412, 24 h
Staphylococcus aureus [16] = assay: Antibacterial activity against methicillin-resistant Staphylococcus aureus isolate 21455 after 24 hrs; format: functional; conditions: isolate 21455, 24 h
Staphylococcus aureus [17] = assay: Antibacterial activity against methicillin-resistant Staphylococcus aureus isolate 1003 after 24 hrs; format: functional; conditions: isolate 1003, 24 h
Staphylococcus aureus [18] = assay: Antibacterial activity against Staphylococcus aureus ATCC 29213 after 24 hrs; format: functional; conditions: ATCC 29213, 24 h
Staphylococcus aureus [19] = assay: Antibacterial activity against Staphylococcus aureus 4299 after 24 hrs; format: functional; conditions: Staphylococcus aureus, 4299, 24 h
[20] = system: Staphylococcus epidermidis; assay: Antibacterial activity against Staphylococcus epidermidis 12228 after 24 hrs; format: functional; conditions: Staphylococcus epidermidis, 12228, 24 h
Bacillus cereus = assay: Antibacterial activity against Bacillus cereus ATCC 11788 after 24 hrs; format: functional; conditions: ATCC 11788, 24 h
[21] = system: Bacillus subtilis (Bacillus subtilis); assay: Antibacterial activity against Bacillus subtilis ATCC 6633 after 24 hrs; conditions: ATCC 6633, 24 h
Staphylococcus aureus [22] = assay: Antibacterial activity against methicillin-resistant Staphylococcus aureus; format: functional
[23] = system: Staphylococcus epidermidis; assay: Antibacterial activity against Staphylococcus epidermidis; format: functional
Staphylococcus aureus [24] = assay: Antibacterial activity against methicillin-sensitive Staphylococcus aureus; format: functional

SMILES	MIC (Staphylococcus aureus [1]) [µg/mL]	MIC (Staphylococcus aureus [2]) [µg/mL]	MIC (Staphylococcus aureus [3]) [µg/mL]	MIC [4] [µg/mL]	MIC [5] [µg/mL]	MIC [6] [µg/mL]	MIC [7] [µg/mL]	MIC (Enterococcus faecalis [8]) [µg/mL]	MIC (Enterococcus faecalis [9]) [µg/mL]	MIC (Enterococcus faecalis [10]) [µg/mL]	MIC (Enterococcus faecalis [11]) [µg/mL]	MIC (Enterococcus faecalis [12]) [µg/mL]	MIC (Enterococcus faecalis [13]) [µg/mL]	MIC (Staphylococcus aureus [14]) [µg/mL]	MIC (Staphylococcus aureus [15]) [µg/mL]	MIC (Staphylococcus aureus [16]) [µg/mL]	MIC (Staphylococcus aureus [17]) [µg/mL]	MIC (Staphylococcus aureus [18]) [µg/mL]	MIC (Staphylococcus aureus [19]) [µg/mL]	MIC [20] [µg/mL]	further results
CC[C@@H](C)[C@@H](NC(=O)[C@@H](CCC(N)=O)NC(=O)[C@H](CO)NC(=O)[C@@H](NC(=O)[C@@H](Cc1ccccc1)NC)[C@@H](C)CC)C(=O)N[C@H](C(=O)N[C@@H](CO)C(=O)N[C@H]1C(=O)N[C@@H](C)C(=O)N[C@@H](C)C(=O)N[C@@H]([C@@H](C)CC)C(=O)O[C@H]1C)[C@@H](C)CC	1 (≈ 0.863 µM)	1 to 2 (≈ 0.863 to 1.73 µM)	–	–	–	–	–	–	–	–	–	–	–	–	–	–	–	–	–	–	–
CCC(C)[C@@H]1NC(=O)[C@H](C)NC(=O)[C@H](NC(=O)[C@H](CO)NC(=O)[C@@H](NC(=O)[C@H](NC(=O)[C@@H](CCC(N)=O)NC(=O)[C@H](CO)NC(=O)[C@@H](NC(=O)[C@@H](Cc2ccccc2)NC)[C@@H](C)CC)[C@H](C)CC)[C@@H](C)CC)[C@H](C)OC(=O)[C@H]([C@@H](C)CC)NC1=O (some centres undefined)	0.063 (≈ 0.0524 µM)	0.25 (≈ 0.208 µM)	–	–	–	–	–	–	–	–	–	–	–	–	–	–	–	–	–	–	–
CC[C@@H](C)[C@@H](NC(=O)[C@@H](CCCNC(=N)N)NC(=O)[C@H](CCCNC(=N)N)NC(=O)[C@@H](NC(=O)[C@@H](Cc1ccccc1)NC)[C@@H](C)CC)C(=O)N[C@H](C(=O)N[C@@H](CO)C(=O)N[C@H]1C(=O)N[C@@H](C)C(=O)N[C@@H](CC(C)C)C(=O)N[C@@H]([C@@H](C)CC)C(=O)O[C@H]1C)[C@@H](C)CC (H-[dNMeF]IR[dR][dI]IS[dT]ALI; ester 8-C)	–	–	0.25 (≈ 0.193 µM)	< 0.0625	< 0.0625	< 0.0625	< 0.0625	1 (≈ 0.77 µM)	1 (≈ 0.77 µM)	0.5 (≈ 0.385 µM)	0.5 (≈ 0.385 µM)	2 (≈ 1.54 µM)	1 (≈ 0.77 µM)	0.5 (≈ 0.385 µM)	0.25 (≈ 0.193 µM)	0.5 (≈ 0.385 µM)	1 (≈ 0.77 µM)	0.25 (≈ 0.193 µM)	0.25 (≈ 0.193 µM)	< 0.0625	MIC (Bacillus cereus): 1 µg/mL (≈ 0.77 µM); MIC [21]: < 0.0625 µg/mL
CC[C@@H](C)[C@@H](NC(=O)[C@@H](CCC(N)=O)NC(=O)[C@H](CO)NC(=O)[C@@H](NC(=O)[C@@H](Cc1ccccc1)NC)[C@@H](C)CC)C(=O)N[C@H](C(=O)N[C@@H](CO)C(=O)N[C@H]1C(=O)N[C@@H](C)C(=O)N[C@@H](CCCCN)C(=O)N[C@@H]([C@@H](C)CC)C(=O)O[C@H]1C)[C@@H](C)CC	–	–	–	–	–	–	–	–	–	–	–	–	–	–	–	–	–	–	–	–	MIC (Staphylococcus aureus [22]): 1 µg/mL (≈ 0.822 µM); MIC [23]: 0.5 to 1 µg/mL (≈ 0.411 to 0.822 µM)
CC[C@@H](C)[C@@H](NC(=O)[C@@H](CCC(N)=O)NC(=O)[C@H](CO)NC(=O)[C@@H](NC(=O)[C@@H](Cc1ccccc1)NC)[C@@H](C)CC)C(=O)N[C@H](C(=O)N[C@@H](CO)C(=O)N[C@H]1C(=O)N[C@@H](C)C(=O)N[C@@H](C(C)C)C(=O)N[C@@H]([C@@H](C)CC)C(=O)O[C@H]1C)[C@@H](C)CC	0.25 (≈ 0.211 µM)	0.5 (≈ 0.421 µM)	–	–	–	–	–	–	–	–	–	–	–	–	–	–	–	–	–	–	–
CC[C@@H](C)[C@@H](NC(=O)[C@@H](CCCNC(=N)N)NC(=O)[C@H](CO)NC(=O)[C@@H](NC(=O)[C@@H](Cc1ccccc1)NC)[C@@H](C)CC)C(=O)N[C@H](C(=O)N[C@@H](CO)C(=O)N[C@H]1C(=O)N[C@@H](C)C(=O)N[C@@H]([C@@H](C)CC)C(=O)N[C@@H]([C@@H](C)CC)C(=O)O[C@H]1C)[C@@H](C)CC	–	–	0.125 (≈ 0.102 µM)	< 0.0625	< 0.0625	< 0.0625	< 0.0625	0.5 (≈ 0.407 µM)	1 (≈ 0.813 µM)	0.5 (≈ 0.407 µM)	0.5 (≈ 0.407 µM)	0.25 (≈ 0.203 µM)	0.25 (≈ 0.203 µM)	0.25 (≈ 0.203 µM)	< 0.0625	0.0312 (≈ 0.0254 µM)	< 0.0625	0.0625 (≈ 0.0508 µM)	< 0.0625	< 0.0625	MIC (Bacillus cereus): < 0.0625 µg/mL; MIC [21]: < 0.0625 µg/mL
CC[C@@H](C)[C@@H](NC(=O)[C@@H](CCC(N)=O)NC(=O)[C@H](CO)NC(=O)[C@@H](NC(=O)[C@@H](Cc1ccccc1)NC)[C@@H](C)CC)C(=O)N[C@H](C(=O)N[C@@H](CO)C(=O)N[C@H]1C(=O)N[C@@H](C)C(=O)N[C@@H](CC(C)C)C(=O)N[C@@H]([C@@H](C)CC)C(=O)O[C@H]1C)[C@@H](C)CC	0.063 (≈ 0.0524 µM)	0.25 (≈ 0.208 µM)	0.25 (≈ 0.208 µM)	–	–	–	–	–	–	–	–	0.25 (≈ 0.208 µM)	0.25 (≈ 0.208 µM)	0.25 (≈ 0.208 µM)	< 0.0625	< 0.0625	–	–	–	–	–
CC[C@@H](C)[C@@H](NC(=O)[C@@H](CCC(N)=O)NC(=O)[C@H](CCCNC(=N)N)NC(=O)[C@@H](NC(=O)[C@@H](Cc1ccccc1)NC)[C@@H](C)CC)C(=O)N[C@H](C(=O)N[C@@H](CO)C(=O)N[C@H]1C(=O)N[C@@H](C)C(=O)N[C@@H](CC(C)C)C(=O)N[C@@H]([C@@H](C)CC)C(=O)O[C@H]1C)[C@@H](C)CC (H-[dNMeF]IR[dQ][dI]IS[dT]ALI; ester 8-C)	–	–	0.125 (≈ 0.0984 µM)	< 0.0625	< 0.0625	< 0.0625	< 0.0625	0.25 (≈ 0.197 µM)	0.5 (≈ 0.394 µM)	< 0.0625	0.125 (≈ 0.0984 µM)	0.5 (≈ 0.394 µM)	0.5 (≈ 0.394 µM)	0.5 (≈ 0.394 µM)	< 0.0625	0.0312 (≈ 0.0246 µM)	< 0.0625	0.25 (≈ 0.197 µM)	0.125 (≈ 0.0984 µM)	< 0.0625	MIC (Bacillus cereus): < 0.0625 µg/mL; MIC [21]: < 0.0625 µg/mL
CC[C@@H](C)[C@@H](NC(=O)[C@@H](CCC(N)=O)NC(=O)[C@H](CO)NC(=O)[C@@H](NC(=O)[C@@H](Cc1ccccc1)NC)[C@@H](C)CC)C(=O)N[C@H](C(=O)N[C@@H](CO)C(=O)N[C@H]1C(=O)N[C@@H](C)C(=O)N[C@@H](CCCNC(=N)N)C(=O)N[C@@H]([C@@H](C)CC)C(=O)O[C@H]1C)[C@@H](C)CC	–	–	–	–	–	–	–	–	–	–	–	–	–	–	–	–	–	–	–	–	MIC (Staphylococcus aureus [24]): 2 µg/mL (≈ 1.61 µM); MIC (Staphylococcus aureus [22]): 2 µg/mL (≈ 1.61 µM)
CC[C@@H](C)[C@@H](NC(=O)[C@@H](CCC(N)=O)NC(=O)[C@H](CO)NC(=O)[C@@H](NC(=O)[C@@H](Cc1ccccc1)NC)[C@@H](C)CC)C(=O)N[C@H](C(=O)N[C@@H](CO)C(=O)N[C@H]1C(=O)N[C@@H](C)C(=O)N[C@@H](Cc2ccccc2)C(=O)N[C@@H]([C@@H](C)CC)C(=O)O[C@H]1C)[C@@H](C)CC	–	2 (≈ 1.62 µM)	–	–	–	–	–	–	–	–	–	–	–	–	–	–	–	–	–	–	–
